Results taken from patent US20250114324A1, “ANTIMICROBIAL MATERIALS AND NANOPARTICLES AND METHODS OF USE THEREOF” (Arizona Board of Regents on behalf of Arizona State …, priority 2022, published 2025).
Read-outs that look alike come from different tables or passages of the source.

How the values were obtained:
[1] = after drinking 2 cups of green tea; cited from earlier work
[2] = Stability of nano-encapsulated and native EGCG in 1×PBS at pH 7.4; assay type: physicochemical; settings: neutral pH (7.4)
Protocol: Three independent experiments were conducted at each time point.
The degradation rate of EGCG in NLCs and CSNLCs were much slower.
(§1) The chemical stability is measured by detecting remaining phytochemicals' concentrations at different time points using the HPLC system. The release profile is measured using a dialysis method. Briefly, native phytochemicals and NCs are each put into dialysis bags with Molecular Weight Cut Off (MWCO) 6,000-8,000. The dialysis bags are dipped into the dissolution medium composed of 1×PBS and methanol (9:1, v:v). The dissolution medium is stirred at 200 rpm at 4° C. and 22° C. The dissolution medium is changed completely every 2 hours for the first 24 hours, and every 6 hours for the rest 30 days. The amounts of phytochemicals in the release medium are measured using the above HPLC methods.

[3] = after drinking tea containing catechins at 10 mg/kg body weight; cited from earlier work
[4] = Pharmacokinetics and bioavailability of Q after oral administration to rats; settings: male, Sprague-Dawley, rat, 50 mg/kg
Protocol: Male Sprague-Dawley rats (n=3 per group) weighing 200-250 g were purchased pre-cannulated from Harlan Laboratories (Indianapolis, IN). The rounded tips catheters were surgically implanted into the jugular vein of the rats with the benefits of multiple blood draw. […] Blood was collected via the catheters at hour 0, 1, 2, 3, 4, 6, 8, 10, 14, 24, 36, and 48 into heparinized tubes. Blood Q concentrations were measured using a HPLC system (FIG. 5). Pharmacokinetic parameters were determined on each individual set of data by using a non-compartmental model (Song I, Eur J Clin Pharmacol. 2016; 72:665-670). […] The relative bioavailability Fr at infinity was calculated as Fr=AUCQ-NLC, […]/AUCQ, 0→∞. The half-life (t1/2)=0.693/k. The mean residence time (MRT)=1/k.
Male Sprague-Dawley rats (n=3 per group) weighing 200-250 g and the rounded tips catheters were surgically implanted into the jugular vein of the rats with the benefits of multiple blood draw. […] Blood was collected via the catheters at hour 0, 1, 2, 3, 4, 6, 8, 10, 14, 24, 36, and 48 into heparinized tubes. Blood Q concentrations were measured using an HPLC system (FIG. 21). Pharmacokinetic parameters were determined on each individual set of data by using a non-compartmental model. […] The area under the plasma concentration time curve from time zero to infinity (AUC0→∞) was calculated as AUC0→24 h+Ct/Ke, where Ct was the Q concentration observed at the […] time, and Ke is the apparent elimination rate constant obtained from the terminal slope of the individual plasma concentration-time curves after logarithmic transformation of the plasma concentration values and application of linear regression. The relative bioavailability Fr at infinity was calculated as Fr=AUCQ-NP, 0→∞/AUCQ, 0→∞. The half-life (t1/2)=0.693/k. The mean residence time (MRT)=1/k.

[5] = room temperature; cited from earlier work
[6] = In vitro release profile (dialysis method); assay type: physicochemical; settings: for release profile: 37° C. (FIG. 17C)
Protocol: as §1
Using R-NPs as an example, the NPs were stable at both 4° C. and 22° C. (FIG. 17A). Nanoencapsulation increased R's stability (FIG. 17B). Similarly, Q and RQ were also stable at 4° C. and 22° C. after encapsulation. A dialysis method was used to measure R and Q release profiles from NPs at 37° C. […] The release profiles of NPs were even slower at 4° C. and 22° C.

[7] = tested on: L. monocytogenes ATCC 15313; assay: Antibacterial activity (absorbance at 595 nm), Example 3; assay type: cell-based, Listeria monocytogenes; settings: 300 μg/mL R or Q; free RQ 240 μg/mL (FIG. 19C)
Excerpt: (§2) The antibacterial activity of all NPs and their controls against Salmonella enterica subsp. enterica (S. enterica ATCC 13076), Listeria monocytogenes (L. monocytogenes ATCC 15313), E coli (ATCC 43895) and Staphylococcus aureus subsp. aureus (S. aureus ATCC 25923) were investigated.

E coli (ATCC 43895) = assay: as above; assay type: cell-based; settings: 300 μg/mL R or Q; free RQ 240 μg/mL (FIG. 19B)
Excerpt: as §2

[8] = tested on: S. enteritidis (13076), L. monocytogenes (15313), E. coli (48953) and S. aureus (25923); assay: Anti-bacterial assay, Example 2, result stated for the four strains together; assay type: cell-based; set-up: anti-bacterial effects: dose or concentration left out as unconfirmed
Protocol: The concentrations of R and Q in the NPs were characterized by HPLC. Three parallel experiments were performed for each sample, the absorbance of bacteria solution treated with different samples was measured by a microplate reader at a wavelength of 600 nm. S. enteritidis (13076), L. monocytogenes (15313), E. coli (48953) and S. aureus (25923) were used in this study and treated with R-NPs, Q-NPs, RQ-NPs, and CS-coated R-NPs, Q-NPs, and RQ-NPs, respectively. Different concentrations of R-NPs and Q-NPs were investigated. Initially, 50 μg/mL R and R-NPs were used. […] S. enteritidis, L. monocytogenes, E. coli and S. aureus were cultured in broth media under constant shaking at 100 rpm at 37° C. to reach the mid exponential growth phase. The number of bacteria was determined by counting the CFU formed on the agar plate. Bacterial suspensions were diluted to approximately 1×10^4-5 CFU/mL in broth media. The NPs solution (20 μL) was mixed with 180 μL of bacterial suspension in a 96-well plate, and the experiments were performed in triplicates. […]

[9] = cited from earlier work
E. coli (48953) = assay: Anti-bacterial assay (OD 600 nm, CFU), Example 2; assay type: cell-based; settings: 100 μg/mL, 24 h of incubation
Protocol: (§3) The concentrations of R and Q in the NPs were characterized by HPLC. Three parallel experiments were performed for each sample, the absorbance of bacteria solution treated with different samples was measured by a microplate reader at a wavelength of 600 nm. S. enteritidis (13076), L. monocytogenes (15313), E. coli (48953) and S. aureus (25923) were used in this study and treated with R-NPs, Q-NPs, RQ-NPs, and CS-coated R-NPs, Q-NPs, and RQ-NPs, respectively. Different concentrations of R-NPs and Q-NPs were investigated. Initially, 50 μg/mL R and R-NPs were used. […] S. enteritidis, L. monocytogenes, E. coli and S. aureus were cultured in broth media under constant shaking at 100 rpm at 37° C. to reach the mid exponential growth phase. The number of bacteria was determined by counting the CFU formed on the agar plate. Bacterial suspensions were diluted to approximately 1×10^4-5 CFU/mL in broth media. The NPs solution (20 μL) was mixed with 180 μL of bacterial suspension in a 96-well plate, and the experiments were performed in triplicates. The plates were incubated at 37° C. under constant shaking at 100 rpm overnight, and the optical density (OD) at 600 nm was measured on a plate reader.

L. monocytogenes (15313) = assay: Anti-bacterial assay (OD 600 nm, CFU), Example 2; assay type: cell-based; settings: 100 μg/mL, 24 h of incubation
Protocol: as §3

S. enteritidis (13076) = assay: Anti-bacterial assay (OD 600 nm, CFU), Example 2; assay type: cell-based; settings: 100 μg/mL, 24 h of incubation
Protocol: as §3

S. aureus (25923) = assay: Anti-bacterial assay (OD 600 nm, CFU), Example 2; assay type: cell-based; settings: 100 μg/mL, 24 h of incubation
Protocol: as §3

[10] = pH>7; cited from earlier work

For `O=C(O[C@@H]1Cc2c(O)cc(O)cc2O[C@@H]1c1cc(O)c(O)c(O)c1)c1cc(O)c(O)c(O)c1` [EGCG, Epigallocatechin Gallate], the “peak plasma EGCG concentration” value [1] is given as 0.15 UM, the “time to complete degradation” value ([2]; 4° C.) is given as 24 h and the “time to complete degradation” value ([2]; 25° C.) is given as 6 h. The “time to complete degradation” value ([2]; 37° C.) was 3 h and the absolute oral bioavailability [3] was “about 0.1%”.

`O=c1c(O)c(-c2ccc(O)c(O)c2)oc2cc(O)cc(O)c12` [Q] gave a half-life ([4]; in vivo) of 16.7 ± 10.5 h, a Cmax ([4]; po) of 964 ± 536 ng/mL and a Ke ([4]; po) of 0.07 ± 0.06 h⁻¹. It also gave an MRT ([4]; po) of 12.1 ± 15.1 h, a Tmax ([4]; po) of 2 h and an AUC ([4]; po, AUCo→24 h) of 14600 ± 6270 ng·h/mL. The AUC ([4]; po, AUCo→∞) was 15300 ± 6090 ng·h/mL, the “dissolution of 20 mg in 10 mL of 1×PBS” value [5] was “not able to be dissolved” and the release profile ([6]; dialysis method) was “burst release”. For the same molecule, the release pattern ([6]; dialysis method, release medium (FIG. 4B)) was “burst release pattern”, the growth inhibition [7] was “inhibited growth” and the growth inhibition (E coli (ATCC 43895)) was “inhibited growth”.

For `Oc1ccc(/C=C/c2cc(O)cc(O)c2)cc1` [R, 3,5,4′-tri-hydroxy-trans-stilbene], the anti-bacterial effects ([8]; 6 h of incubation) is given as “significant anti-bacterial effects”, the “anti-bacterial effects of 300 μg/mL compared with 200 μg/mL” value ([8]; FIG. 9) is given as “significant enhanced anti-bacterial effects” and the aqueous solubility [9] is given as < 100 µg/mL. The anti-bacterial effects (E. coli (48953)) was “showed anti-bacterial effects”, the “growth (CFU formation)” value (E. coli (48953)) was “significantly decreased the growth” and the “growth (CFU formation)” value (L. monocytogenes (15313)) was “still not shown”. The “growth (CFU formation)” value (S. enteritidis (13076)) was “still not shown”, the anti-bacterial effects (S. aureus (25923)) was “showed anti-bacterial effects” and the “growth (CFU formation)” value (S. aureus (25923)) was “significantly decreased the growth”. The release behavior ([6]; RES NPs study) was “burst release”, the release profile ([6]; dialysis method) was “burst release” and the growth inhibition [7] was “inhibited growth”. For the same molecule, the growth inhibition (E coli (ATCC 43895)) was “inhibited growth”.

In the case of `COc1cc(/C=C/C(=O)CC(=O)/C=C/c2ccc(O)c(OC)c2)ccc1O` [curcumin, Curcumin], the solubility in water [9] is given as “less than 0.1 mg/mL” and the half-life [10] is given as < 0.167 h.
